Source: publication PMC12529164, “Design, Synthesis, Structure–Activity Relationships, and Preliminary Anticancer Properties of Menthol-Modified Coumarin Esters and 3,4-Dihydrocoumarin Derivatives” (ACS Omega, 2025)
Where “and” joins values, the source holds several entries; their conditions need not be identical. Equal entries are not always repeated.

How the values were obtained:
Assay type in all cases: cell-based, human
PC3 [1] = test: Trypan blue assay; conditions: PC3, compound at IC50, 72 h
Procedure: The total cell count was assessed by trypan blue exclusion dye assay using automated cell counter (Countess Invitrogen). Untreated cells were used as the control. Each experiment was repeated 5 times.

PC3 [2] = test: Annexin V-FITC/PI flow cytometry; conditions: PC3, compound at IC50, 72 h, mean
Procedure: (§1) The apoptotic and necrotic cells treated with derivatives 2b, 4a, 4b were detected using FITC Annexin V Apoptosis Detection Kit I (BD Biosciences Pharmingen). Briefly, cells (2 × 10^5 cells/well) were seeded in 6-well plates in supplemented medium. […] Then cells were harvested, washed, and labeled with Annexin V-FITC and propidium iodide (PI) according to the manufacturer’s protocol. The stained cells were analyzed by flow cytometry. The cells were identified as early apoptotic (Annexin V+/PI−) or late apoptotic/necrotic (Annexin V+/PI+).

SW620 = test: Annexin V-FITC/PI flow cytometry; conditions: SW620, compound at IC50, 72 h
Procedure: as §1

SW480 = test: Annexin V-FITC/PI flow cytometry; conditions: SW480, compound at IC50, 72 h, mean
Procedure: as §1

HaCaT = test: Annexin V-FITC/PI flow cytometry; conditions: compound at IC50, 72 h, mean
Procedure: as §1

CC(C)[C@@H]1CC[C@@H](C)C[C@H]1OC(=O)C1C(=O)Oc2ccccc2C1P(=O)(c1ccccc1)c1ccccc1 (mixture of isomers) [Compound 4a, (1R,2S,5R)-2-Isopropyl-5-methylcyclohexyl-4-(diphenylphosphoryl)-2-oxochromane-3-carboxylate]
cell number (PC3 [1]; mean): 2.5 x106 | viability (%) (PC3 [1]; mean): 94.33% | reduction of number of live cells (PC3 [1]; vs control): 62.1% | Early apoptosis [%] (PC3 [2]): 48.3% | Late apoptosis [%] (PC3 [2]): 44.75% and 44.8% | Necrosis [%] (PC3 [2]): 0.65% | Early apoptosis [%] (SW620; mean): 11.75% | Late apoptosis [%] (SW620; mean): 8.80% | Necrosis [%] (SW620; mean): 1.45% | both late apoptosis and necrosis (SW620; sum): 10.25% | Early apoptosis [%] (SW480): 1.95% | Late apoptosis [%] (SW480): 48.95% | Necrosis [%] (SW480): 1.80% | Early apoptosis [%] (HaCaT): 8.90% | Late apoptosis [%] (HaCaT): 3.40% | Necrosis [%] (HaCaT): 0.08%
